Experimental data published in patent US20040157858A1, “Piperazine derivatives as tachykinin antagonists” (priority 2001, published 2004).
Where a name gives a salt, the structure may show the parent alone.

Molecular target: T1, recombinant human NK1 receptors (Homo sapiens, UniProt P25103)
T1 construct: expressed in transfected cells; host or cells: Chinese Hamster Ovary (CHO) cells, membrane preparation
T1 sequence (P25103 whole entry): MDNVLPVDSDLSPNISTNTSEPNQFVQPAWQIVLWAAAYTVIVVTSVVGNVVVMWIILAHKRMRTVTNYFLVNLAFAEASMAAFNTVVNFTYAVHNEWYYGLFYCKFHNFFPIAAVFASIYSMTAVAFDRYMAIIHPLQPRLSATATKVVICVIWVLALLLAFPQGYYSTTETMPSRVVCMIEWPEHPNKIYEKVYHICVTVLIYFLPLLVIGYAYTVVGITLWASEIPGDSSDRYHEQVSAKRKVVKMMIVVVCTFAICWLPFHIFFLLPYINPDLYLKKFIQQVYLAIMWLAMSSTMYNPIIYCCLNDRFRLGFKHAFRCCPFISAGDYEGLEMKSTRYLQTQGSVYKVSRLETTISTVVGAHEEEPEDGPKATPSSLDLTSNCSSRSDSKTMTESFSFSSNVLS
Assay: NK1-receptor binding affinity, displacement of [3H]-substance P
Conditions: displacement of [3H]-substance P from recombinant human NK1 receptors expressed in CHO cell membranes; average of at least two determinations
Experimental: NK1-receptor binding affinity has been determined in vitro by the compounds' ability to displace [3H]-substance P (SP) from recombinant human NK1 receptors expressed in Chinese Hamster Ovary (CHO) cell membranes.
CHO cell membranes were prepared by using a modification of the method described by Dam T and Quirion R (Peptides, 7:855-864, 1986). Thus ligand binding was performed in 0.4 ml of 50 mM HEPES, pH 7.4, containing 3 mM MnCl2, 0.02% BSA, 0.5 nM [^3H]-Substance P (30÷56 Ci/mmol, Amersham), a final membrane concentration of 25 μg of protein/ml, and the test compounds. The incubation proceeded at room temperature for 40 min. Non-specific binding was determined using excess of Substance P (1 μM) and represents about 6% of the total binding.
The affinity of the compound of the invention for NK1 receptor was determined using the NK1-receptor binding affinity method measuring in vitro by the compounds' ability to displace [3H]-substance P (SP) from recombinant human NK1 receptors expressed in Chinese Hamster Ovary (CHO) cell membranes. The affinity values are expressed as negative logarithm of the inhibition constant (Ki) of displacer ligands (pKi).
The pKi values obtained as the average of at least two determinations with representative compounds of the invention are given in the following table: […]
In the case of `Cc1cc(C)cc(CN(C)C(=O)N2CCNC[C@@H]2c2ccc(F)cc2C)c1` [Example 2, 2-(S)-(4Fluoro-2-methyl-phenyl)piperazine-1-carboxylic Acid, (3,5-dimethyl-benzyl)-methylamide Hydrochloride], the Ki is reported as 0.724 nM.
`Cc1cc(F)ccc1[C@H]1CNCCN1C(=O)N(C)Cc1cc(Cl)cc(Cl)c1.Cl` [Example 3, 2-(S)-(4-Fluoro-2-methyl-phenyl)-piperazine-1-carboxylic Acid, (3,5-dichloro-benzyl)-methylamide Hydrochloride] showed a Ki of 0.372 nM.
Work on `Cc1cc(F)ccc1[C@H]1CNCCN1C(=O)N(C)Cc1cc(F)cc(F)c1` [Example 6, 2-(S)-(4-Fluoro-2-methyl-phenyl)-piperazine-1-carboxylic Acid, (3,5-difluoro-benzyl)-methylamide Hydrochloride] yielded a Ki of 1.66 nM.
For `Cc1cc(F)ccc1[C@H]1CNCCN1C(=O)N(C)Cc1cc(Cl)ccc1Cl` [Example 7, 2-(S)-(4-Fluoro-2-methyl-phenyl)-piperazine-1-carboxylic Acid, (2,5-dichloro-benzyl)-methylamide Hydrochloride], the Ki was 0.851 nM.
In the case of `Cc1cc(F)ccc1[C@H]1CNCCN1C(=O)N(C)Cc1ccc(Cl)c(Cl)c1` [Example 8, 2-(S)-(4-fluoro-2-methyl-phenyl)-piperazine-1-carboxylic Acid, (3,4-dichlorobenzyl)-methylamide Trifluoroacetate], the Ki is reported as 0.646 nM.

Tested on: not given
Assay: not given
Conditions: not given
`Cc1cc(F)ccc1[C@H]1CNCCN1C(=O)N(C)Cc1cc(Cl)cc(Cl)c1.Cl` [Example 3, 2-(S)-(4-Fluoro-2-methyl-phenyl)-piperazine-1-carboxylic Acid, (3,5-dichloro-benzyl)-methylamide Hydrochloride] showed a melting point of 110 to 112 °C.
